Assay results reported in patent US20100298141A1, “SUBSTITUTED PYRIDINE N-OXIDE HERBICIDES” (E. I. DU PONT DE NEMOURS AND COMPANY, priority 2007, published 2010).

Key:
crabgrass = assay: Test A pre-/postemergence greenhouse test; format: in vivo, Digitaria sanguinalis; details: for Plant response rating, Crabgrass, Large: 0 to 100 scale where 0 is no effect and 100 is complete control; for Crabgrass, Large plant response rating: 0 to 100 scale
Outline: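 Pots of loam–sand soil sown with the test species are sprayed preemergence on the soil surface; emerged seedlings (1–2 leaves, 2–10 cm) are sprayed postemergence at the same time. The vehicle is a non-phytotoxic solvent mixture with surfactant. Injury is scored visually after ~10 d in greenhouse.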

kochia = assay: Test C pre-/postemergence test; format: in vivo, Kochia scoparia; details: for Plant response rating, Kochia: 31 g ai/ha, scale 0 to 100 (0 no effect, 100 complete control)
Outline: (§1)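 Compounds in a non-phytotoxic solvent with surfactant applied preemergence to seeded pots and, at the same time, postemergence to plants 2–18 cm tall (1- to 4-leaf stage). Paddy tests: pots flooded to 3 cm, compound applied into the water, depth held throughout.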

yellow nutsedge = assay: Test C pre-/postemergence test; format: in vivo, Cyperus esculentus; details: for Plant response rating, Nutsedge, Yellow: 31 g ai/ha, scale 0 to 100 (0 no effect, 100 complete control)
Outline: as §1

common ragweed [1] = assay: Test C pre-/postemergence test; format: in vivo, Ambrosia elation
Outline: as §1

bermudagrass = assay: Test F preemergence test; format: in vivo, Cynodon dactylon; details: scale 0 to 100
Source text: (§2) Seeds of plant species selected from bermudagrass (Cynodon dactylon), Surinam grass (Brachiaria decumbens), large crabgrass (Digitaria sanguinalis), green foxtail (Setaria viridis), goosegrass (Eleusine indica), johnsongrass (Sorghum halepense), kochia (Kochia scoparia), pitted morningglory (Ipomoea lacunosa), purple nutsedge (Cyperus rotundus), common ragweed (Ambrosia elation), mustard (Brassica nigra), guineagrass (Panicum maximum), […] (Paspalum dilatatum), barnyardgrass (Echinochloa crus-galli), southern sandbur (Cenchrus echinatus), common sowthistle (Sonchus oleraceous), prickly […] spinosa), Italian ryegrass (Lolium multiflorum), common purslane (Portulaca oleracea), broadleaf signalgrass (Brachiaria platyphylla), common groundsel (Senecio vulgaris), common chickweed (Stellaria media), Virginia dayflower (Commelina virginica), annual bluegrass (Poa annua), naked crabgrass (Digitaria nuda), […] cochinchinensis), quackgrass (Elytrigia repens), Canada horseweed (Conyza canadensis), field bindweed (Convolvulus arvensis), […] (Bidens bipinnata), common mallow (Malva sylvestris), Russian thistle (Salsola kali), and sugarcane (Saccharum officinarum) were planted and treated preemergence with test chemicals formulated in a non-phytotoxic solvent mixture which included a surfactant. At a different time, sugarcane was treated with postemergence applications of some of the test chemicals formulated in the same manner. Plants were approximately 3- to 4-leaf stage for the postemergence treatments. Treated plants and controls were maintained in a greenhouse for 14 to 21 days, after which time all species were compared to controls and visually evaluated. […] A dash (-) response means no test result.

green foxtail = assay: Test F preemergence test; format: in vivo, Setaria viridis; details: scale 0 to 100
Source text: as §2

goosegrass = assay: Test F preemergence test; format: in vivo, Eleusine indica; details: scale 0 to 100
Source text: as §2

purple nutsedge = assay: Test F preemergence test; format: in vivo, Cyperus rotundus; details: scale 0 to 100
Source text: as §2

common ragweed [2] = assay: Test F preemergence test; format: in vivo, Ambrosia elation; details: scale 0 to 100
Source text: as §2

prickly sida = assay: Test F preemergence test; format: in vivo, Sida spinosa; details: scale 0 to 100
Source text: as §2

broadleaf signalgrass = assay: Test F preemergence test; format: in vivo, Brachiaria platyphylla; details: scale 0 to 100; for Signalgrass plant response rating: 125 g ai/ha
Source text: as §2

naked crabgrass = assay: Test F preemergence test; format: in vivo, Digitaria nuda; details: scale 0 to 100
Source text: as §2

itchgrass = assay: Test F preemergence test; format: in vivo, Rottboellia cochinchinensis; details: scale 0 to 100
Source text: as §2

[3] = Postemergence, 500 g ai/ha, 0 is no effect, 100 is complete control
[4] = Preemergence, 125 g ai/ha, 0 no effect, 100 complete control
[5] = 125 g ai/ha, preemergence, scale 0 (no effect) to 100 (complete control)
[6] = preemergence, 250 g ai/ha, scale 0 (no effect) to 100 (complete control)
[7] = 62 g ai/ha, Preemergence, scale 0 to 100

In the case of `Cn1nc(OC(F)F)c(CS(=O)(=O)c2cccc[n+]2[O-])c1C(F)(F)F` [Compound 80], the “Plant response rating, Crabgrass, Large” value (crabgrass; Postemergence, 125 g ai/ha) is reported as 40, the “Crabgrass, Large plant response rating” value (crabgrass; [3]) is reported as 80 and the “Crabgrass, Large plant response rating” value (crabgrass; [4]) is reported as 80. The “Plant response rating, Crabgrass, Large” value (crabgrass; Preemergence, 500 g ai/ha) was 90, the “Kochia plant response rating” value (kochia; [5]) was 70 and the “Plant response rating, Kochia” value (kochia; Preemergence) was 0. The “Kochia plant response rating” value (kochia; [6]) was 100, the “Nutsedge, Yellow plant response rating” value (yellow nutsedge; [7]) was 75 and the “Nutsedge, Yellow plant response rating” value (yellow nutsedge; [5]) was 85. For the same compound, the “Plant response rating, Nutsedge, Yellow” value (yellow nutsedge; Preemergence) was 45, the “Nutsedge, Yellow plant response rating” value (yellow nutsedge; [6]) was 95 and the “Ragweed plant response rating” value (common ragweed [1]; [7]) was 0. For the same compound, the “Ragweed plant response rating” value (common ragweed [1]; [5]) was 85, the “Ragweed plant response rating” value (common ragweed [1]; [6]) was 100 and the “Plant response rating, Bermudagrass” value (bermudagrass; 16 g ai/ha, preemergence) was 50. For the same compound, the “Bermudagrass plant response rating” value (bermudagrass; 62 g ai/ha, Preemergence) was 90, the “Bermudagrass plant response rating” value (bermudagrass; 125 g ai/ha, preemergence) was 98 and the “Plant response rating, Bermudagrass” value (bermudagrass; Preemergence, 31 g ai/ha) was 80. For the same compound, the “Plant response rating, Foxtail, Green” value (green foxtail; 16 g ai/ha, preemergence) was 30, the “Foxtail, Green plant response rating” value (green foxtail; 62 g ai/ha, Preemergence) was 75 and the “Foxtail, Green plant response rating” value (green foxtail; 125 g ai/ha, preemergence) was 95. The “Plant response rating, Foxtail, Green” value (green foxtail; Preemergence, 31 g ai/ha) was 75, the “Plant response rating, Goosegrass” value (goosegrass; 16 g ai/ha, preemergence) was 80 and the “Goosegrass plant response rating” value (goosegrass; 62 g ai/ha, Preemergence) was 95. For the same compound, the “Goosegrass plant response rating” value (goosegrass; 125 g ai/ha, preemergence) was 100, the “Plant response rating, Goosegrass” value (goosegrass; Preemergence, 31 g ai/ha) was 85 and the “Plant response rating, Purple Nutsedge” value (purple nutsedge; 16 g ai/ha, preemergence) was 0. For the same compound, the “Purple Nutsedge plant response rating” value (purple nutsedge; 62 g ai/ha, Preemergence) was 50, the “Purple Nutsedge plant response rating” value (purple nutsedge; 125 g ai/ha, preemergence) was 80 and the “Plant response rating, Ragweed” value (common ragweed [2]; 16 g ai/ha, preemergence) was 0. For the same compound, the “Ragweed plant response rating” value (common ragweed [2]; 125 g ai/ha, preemergence) was 90, the “Plant response rating, Ragweed” value (common ragweed [2]; Preemergence, 31 g ai/ha) was 0 and the “Plant response rating, Prickly Sida” value (prickly sida; 16 g ai/ha, preemergence) was 0. For the same compound, the “Prickly Sida plant response rating” value (prickly sida; 62 g ai/ha, Preemergence) was 0, the “Prickly Sida plant response rating” value (prickly sida; 125 g ai/ha, preemergence) was 20 and the “Plant response rating, Prickly Sida” value (prickly sida; Preemergence, 31 g ai/ha) was 0. The “Plant response rating, Signalgrass” value (broadleaf signalgrass; 16 g ai/ha, preemergence) was 25, the “Signalgrass plant response rating” value (broadleaf signalgrass; preemergence) was 98 and the “Plant response rating, Signalgrass” value (broadleaf signalgrass; Preemergence, 62 g ai/ha) was 75. The “Plant response rating, Signalgrass” value (broadleaf signalgrass; Preemergence, 31 g ai/ha) was 25, the “Plant response rating, Crabgrass, Naked” value (naked crabgrass; 16 g ai/ha, preemergence) was 0 and the “Crabgrass, Naked plant response rating” value (naked crabgrass; 62 g ai/ha, Preemergence) was 90. For the same compound, the “Crabgrass, Naked plant response rating” value (naked crabgrass; 125 g ai/ha, preemergence) was 100, the “Plant response rating, Crabgrass, Naked” value (naked crabgrass; Preemergence, 31 g ai/ha) was 75 and the “Plant response rating, Itchgrass” value (itchgrass; 16 g ai/ha, preemergence) was 10. The “Itchgrass plant response rating” value (itchgrass; 62 g ai/ha, Preemergence) was 60, the “Itchgrass plant response rating” value (itchgrass; 125 g ai/ha, preemergence) was 90 and the “Plant response rating, Itchgrass” value (itchgrass; Preemergence, 31 g ai/ha) was 20.

With `Cc1cc([S+]([O-])Cc2c(C(F)(F)F)nn(C)c2OCC(F)(F)F)[n+]([O-])cc1Cl` (stereo not drawn) [Compound 70] the “Plant response rating, Crabgrass, Large” value (crabgrass; Postemergence, 125 g ai/ha) was 50, the “Crabgrass, Large plant response rating” value (crabgrass; [3]) was 80 and the “Crabgrass, Large plant response rating” value (crabgrass; [4]) was 90. For the same compound, the “Plant response rating, Crabgrass, Large” value (crabgrass; Preemergence, 500 g ai/ha) was 100, the “Kochia plant response rating” value (kochia; [7]) was 100 and the “Kochia plant response rating” value (kochia; [5]) was 100. For the same compound, the “Plant response rating, Kochia” value (kochia; Preemergence) was 100, the “Kochia plant response rating” value (kochia; [6]) was 100 and the “Nutsedge, Yellow plant response rating” value (yellow nutsedge; [7]) was 65. For the same compound, the “Nutsedge, Yellow plant response rating” value (yellow nutsedge; [5]) was 65, the “Plant response rating, Nutsedge, Yellow” value (yellow nutsedge; Preemergence) was 60 and the “Nutsedge, Yellow plant response rating” value (yellow nutsedge; [6]) was 95. The “Ragweed plant response rating” value (common ragweed [1]; [7]) was 80, the “Ragweed plant response rating” value (common ragweed [1]; [5]) was 80 and the “Plant response rating, Ragweed” value (common ragweed [1]; Preemergence, 31 g ai/ha, scale 0 to 100 (0 no effect, 100 complete control)) was 0. The “Ragweed plant response rating” value (common ragweed [1]; [6]) was 100, the “Plant response rating, Bermudagrass” value (bermudagrass; 16 g ai/ha, preemergence) was 40 and the “Bermudagrass plant response rating” value (bermudagrass; 62 g ai/ha, Preemergence) was 98. The “Bermudagrass plant response rating” value (bermudagrass; 125 g ai/ha, preemergence) was 100, the “Plant response rating, Bermudagrass” value (bermudagrass; Preemergence, 31 g ai/ha) was 80 and the “Foxtail, Green plant response rating” value (green foxtail; 62 g ai/ha, Preemergence) was 75. The “Foxtail, Green plant response rating” value (green foxtail; 125 g ai/ha, preemergence) was 90, the “Plant response rating, Foxtail, Green” value (green foxtail; Preemergence, 31 g ai/ha) was 65 and the “Plant response rating, Goosegrass” value (goosegrass; 16 g ai/ha, preemergence) was 60. The “Goosegrass plant response rating” value (goosegrass; 62 g ai/ha, Preemergence) was 80, the “Goosegrass plant response rating” value (goosegrass; 125 g ai/ha, preemergence) was 100 and the “Plant response rating, Goosegrass” value (goosegrass; Preemergence, 31 g ai/ha) was 80. The “Plant response rating, Purple Nutsedge” value (purple nutsedge; 16 g ai/ha, preemergence) was 0, the “Purple Nutsedge plant response rating” value (purple nutsedge; 62 g ai/ha, Preemergence) was 20 and the “Purple Nutsedge plant response rating” value (purple nutsedge; 125 g ai/ha, preemergence) was 40. The “Plant response rating, Purple Nutsedge” value (purple nutsedge; Preemergence, 31 g ai/ha) was 15, the “Plant response rating, Ragweed” value (common ragweed [2]; 16 g ai/ha, preemergence) was 60 and the “Plant response rating, Ragweed” value (common ragweed [2]; Preemergence, 62 g ai/ha) was 80. For the same compound, the “Plant response rating, Ragweed” value (common ragweed [2]; Preemergence, 31 g ai/ha) was 60, the “Plant response rating, Prickly Sida” value (prickly sida; 16 g ai/ha, preemergence) was 60 and the “Prickly Sida plant response rating” value (prickly sida; 62 g ai/ha, Preemergence) was 90. The “Prickly Sida plant response rating” value (prickly sida; 125 g ai/ha, preemergence) was 90, the “Plant response rating, Prickly Sida” value (prickly sida; Preemergence, 31 g ai/ha) was 80 and the “Signalgrass plant response rating” value (broadleaf signalgrass; preemergence) was 90. The “Plant response rating, Signalgrass” value (broadleaf signalgrass; Preemergence, 62 g ai/ha) was 90, the “Plant response rating, Crabgrass, Naked” value (naked crabgrass; 16 g ai/ha, preemergence) was 90 and the “Crabgrass, Naked plant response rating” value (naked crabgrass; 62 g ai/ha, Preemergence) was 100. The “Crabgrass, Naked plant response rating” value (naked crabgrass; 125 g ai/ha, preemergence) was 100, the “Plant response rating, Crabgrass, Naked” value (naked crabgrass; Preemergence, 31 g ai/ha) was 90 and the “Plant response rating, Itchgrass” value (itchgrass; 16 g ai/ha, preemergence) was 80. For the same compound, the “Itchgrass plant response rating” value (itchgrass; 62 g ai/ha, Preemergence) was 80, the “Itchgrass plant response rating” value (itchgrass; 125 g ai/ha, preemergence) was 100 and the “Plant response rating, Itchgrass” value (itchgrass; Preemergence, 31 g ai/ha) was 80.
